Data on four compounds can be found in ChEMBL document CHEMBL1138357 (J Med Chem, 2007).

Active and inactive are the calls of the source. No cut-off for these calls is given here.

The target of assay [1] is Melatonin receptor type 1A (Homo sapiens, UniProt P48039). The assay is described as follows: Displacement of 2-[125I]iodomelatonin from human cloned MT1 receptor expressed in […] NIH3T3 cells. Format: cell-based.
The target of assay [2] is T1, Melatonin receptor type 1B (Homo sapiens, UniProt P49286).
T1 sequence (P49286 whole entry): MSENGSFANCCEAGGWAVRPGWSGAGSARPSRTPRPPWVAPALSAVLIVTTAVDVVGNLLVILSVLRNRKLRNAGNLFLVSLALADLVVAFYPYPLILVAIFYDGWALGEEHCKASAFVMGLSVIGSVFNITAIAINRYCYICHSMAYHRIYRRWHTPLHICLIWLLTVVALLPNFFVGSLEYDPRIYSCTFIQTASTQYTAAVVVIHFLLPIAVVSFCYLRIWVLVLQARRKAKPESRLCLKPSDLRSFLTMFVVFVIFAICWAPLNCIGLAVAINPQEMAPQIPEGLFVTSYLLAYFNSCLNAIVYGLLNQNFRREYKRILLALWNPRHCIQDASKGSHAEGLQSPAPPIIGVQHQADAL
The assay can be described thus: Displacement of 2-[125I]iodomelatonin from human cloned MT2 receptor expressed in […] NIH3T3 cells. Format: cell-based.

For assay [3], the species on record is Rattus norvegicus. The assay is described as follows: Anxiolytic activity in Sprague-Dawley rat by elevated plus maze test. Format: functional, organism-based.
Assay [4] deals with Rattus norvegicus. The assay can be described thus: Sleep promoting activity in rat assessed as increase in duration of slow wave sleep at 40 mg/kg, sc. Format: functional, organism-based. Details: dose 40 mg/kg.
For assay [5], the system named is Rattus norvegicus. The assay is described as follows: Sleep promoting activity in rat assessed as increase of paradoxical sleep latency at 40 mg/kg, sc. Format: functional, organism-based. Also on record: dose 40 mg/kg.
In assay [6] the test system is Rattus norvegicus. The assay is described as follows: Sleep promoting activity in rat assessed as decrease in latency at 40 mg/kg, sc. In kind it is functional, organism-based. Also on record: dose 40 mg/kg.

As a reminder, the Ki is a dissociation constant, usually derived from enzyme kinetics or from competition with a known ligand.

Chain of Melatonin receptor type 1A (P48039 whole entry): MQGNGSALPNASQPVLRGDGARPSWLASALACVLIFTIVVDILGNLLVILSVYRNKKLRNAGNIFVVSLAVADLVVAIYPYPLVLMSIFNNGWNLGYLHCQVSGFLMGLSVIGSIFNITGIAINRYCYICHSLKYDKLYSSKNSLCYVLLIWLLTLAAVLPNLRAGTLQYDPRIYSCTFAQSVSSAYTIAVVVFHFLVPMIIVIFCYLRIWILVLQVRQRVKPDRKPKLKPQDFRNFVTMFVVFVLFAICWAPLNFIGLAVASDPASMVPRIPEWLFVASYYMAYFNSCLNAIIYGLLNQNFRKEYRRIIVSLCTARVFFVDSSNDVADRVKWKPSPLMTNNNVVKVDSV

In assay [1], `COc1cccc(N(CCNC(=O)C2CCC2)c2ccccc2)c1` showed a Ki of 324 nM.

As to `COc1cccc(OCCNC(C)=O)c1`, the Ki was 7.24 nM in assay [1] and 12.6 nM in assay [2].

For the compound `COc1cccc(N(CCNC(C)=O)c2ccccc2)c1`, the outcome in the assay filed under Rattus norvegicus [3], in the assay with Rattus norvegicus [4], in the assay on Rattus norvegicus [5] and in the assay on Rattus norvegicus [6] was Active.

For `COc1cccc(NCCNC(C)=O)c1`, the Ki in assay [2] is 7.41 nM.
